Experimental data from patent US8129399B2, “Aminopyrimidines useful as kinase inhibitors” (Vertex Pharmaceuticals Incorporated, priority 2005, dated 2012).
Where two headings read alike, the source gives them in different places.

How the values were obtained:
[1] = target: Aurora-1 (Aurora B) (Homo sapiens, UniProt Q96GD4); assay: Aurora-1 (Aurora B) inhibition assay (radiometric); format: biochemical; details: 800 μM ATP; read-out: Aurora B Ki
Experimental: An assay buffer solution was prepared which consisted of 25 mM HEPES (pH 7.5), 10 mM MgCl2, 0.1% BSA and 10% glycerol. […] To 22 μL of the Aurora-B solution, in a 96-well plate, was added 2 μl of a compound stock solution in DMSO and the mixture allowed to equilibrate for 10 minutes at 25° C. The enzyme reaction was initiated by the addition of 16 μl stock [γ-^33P]-ATP solution (˜20 nCi/μL) prepared in assay buffer, to a final assay concentration of 800 μM. The reaction was stopped after 3 hours by the addition of 16 μL 500 mM phosphoric acid and the levels of ^33P incorporation into the peptide substrate were determined by the following method.
A phosphocellulose 96-well plate (Millipore, Cat no. MAPHNOB50) was pre-treated with 100 μL of a 100 mM phosphoric acid prior to the addition of the enzyme reaction mixture (40 μL). The solution was left to soak on to the phosphocellulose membrane for 30 minutes and the plate subsequently washed four times with 200 μL of a 100 mM phosphoric acid. […] Levels of non-enzyme catalyzed background radioactivity were determined by adding 16 μL of the 500 mM phosphoric acid to control wells, containing all assay components (which acts to denature the enzyme), prior to the addition of the [γ-^33P]-ATP solution. Levels of enzyme catalyzed ^33P incorporation were calculated by subtracting mean background counts from those measured at each inhibitor concentration. […] Ki values were calculated from initial rate data by non-linear regression using the Prism software package (Prism 3.0, Graphpad Software, San Diego, Calif.).

[2] = system: Colo205 cells; assay: Colo205 cell proliferation, 3H thymidine incorporation; format: cell-based; details: Homo sapiens
Experimental: Colo205 cells were seeded in 96 well plates and serially diluted compound was added to the wells in duplicate. Control groups included untreated cells, the compound diluent (0.1% DMSO alone) and culture medium without cells.
To measure proliferation, 3 h prior to the end of the experiment 0.5 μCi of 3H thymidine was added to each well. Cells were then harvested and the incorporated radioactivity counted on a Wallac microplate beta-counter. Cell viability was assessed using Promega CellTiter 96AQ to measure MTS conversion. Dose response curves were calculated using either Prism 3.0 (GraphPad) or SoftMax Pro 4.3.1 LS (Molecular Devices) software.

[3] = target: N-terminally truncated (Δ 27) Abl kinase (Homo sapiens, UniProt P00519); assay: Abl kinase activity inhibition assay, coupled enzyme; format: biochemical
Experimental: Reactions were carried out in a solution containing 100 mM HEPES (pH 7.5), 10 mM MgCl2, 25 mM NaCl, 300 μM NADH, 1 mM DTT and 3% DMSO. […] Final concentrations of the components of the coupled enzyme system were 2.5 mM phosphoenolpyruvate, 200 μM NADH, 60 μg/ml pyruvate kinase and 20 μg/ml lactate dehydrogenase.
An assay stock buffer solution was prepared containing all of the reagents listed above with the exception of ATP and the test compound of interest. […] Rates of reaction were obtained using a Molecular Devices Spectramax plate reader (Sunnyvale, Calif.) over 10 min at 30° C. The Ki values were determined from the residual rate data as a function of inhibitor concentration using nonlinear regression (Prism 3.0, Graphpad Software, San Diego, Calif.).

[4] = target: T1, Aurora-2 (Aurora A) (Homo sapiens, UniProt O14965); assay: Aurora-2 (Aurora A) inhibition assay, coupled enzyme; format: biochemical
T1 sequence (O14965 1-403): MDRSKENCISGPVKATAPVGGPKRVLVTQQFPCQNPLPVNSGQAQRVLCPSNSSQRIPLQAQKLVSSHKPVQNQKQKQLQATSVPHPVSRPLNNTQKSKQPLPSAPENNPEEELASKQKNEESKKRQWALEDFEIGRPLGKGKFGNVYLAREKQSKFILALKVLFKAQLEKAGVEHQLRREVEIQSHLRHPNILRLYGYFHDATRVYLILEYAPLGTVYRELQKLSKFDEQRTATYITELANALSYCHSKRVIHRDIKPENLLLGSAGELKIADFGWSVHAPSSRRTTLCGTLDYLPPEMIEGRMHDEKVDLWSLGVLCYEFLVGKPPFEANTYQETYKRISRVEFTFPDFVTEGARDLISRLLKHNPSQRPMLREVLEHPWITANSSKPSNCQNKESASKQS
Experimental: Assays were carried out in a mixture of 100 mM Hepes (pH7.5), 10 mM MgCl2, 1 mM DTT, 25 mM NaCl, 2.5 mM phosphoenolpyruvate, 300 μM NADH, 30 μg/ml pyruvate kinase and 10 μg/ml lactate dehydrogenase. […] Assays were carried out at 30° C. and in the presence of 40 nM Aurora-2.
An assay stock buffer solution was prepared containing all of the reagents listed above, with the exception of Aurora-2 and the test compound of interest. […] The plate was preincubated for 10 minutes at 30° C. and the reaction initiated by addition of 10 μl of Aurora-2. Initial reaction rates were determined with a Molecular Devices SpectraMax Plus plate reader over a 10 minute time course. IC50 and Ki data were calculated from non-linear regression analysis using the Prism software package (GraphPad Prism version 3.0cx for Macintosh, GraphPad Software, San Diego Calif., USA).

[5] = target: Arg (Abl-2) (Homo sapiens, UniProt P42684); assay: Arg (Abl-2) inhibition screen; format: biochemical; details: Table 5; ATP at or close to Km
Text: (§1) Compound(s) were screened for their ability to inhibit Arg (Abl-2), FGFR1, MLK1, Tie2, and TrkA using screening methods known to one of ordinary skill in the art. All of the above enzymes were screened with ATP concentrations at or close to the Km for ATP.

[6] = target: FGFR1 (Homo sapiens, UniProt P11362); assay: FGFR1 inhibition screen; format: biochemical; details: Table 5; ATP at or close to Km
Text: as §1

[7] = COLO 205, read-out: Colo205 inh 3H-Thy incorporation after 72 hours IC50 (uM)
[8] = 400 μM ATP, 40 nM Aurora-2, read-out: Aurora A Ki
[9] = COLO 205, read-out: Colo205 inh 3H-Thy incorporation after 96 hours IC50 (uM)

Sequence of Aurora-1 (Aurora B) (Q96GD4 whole entry): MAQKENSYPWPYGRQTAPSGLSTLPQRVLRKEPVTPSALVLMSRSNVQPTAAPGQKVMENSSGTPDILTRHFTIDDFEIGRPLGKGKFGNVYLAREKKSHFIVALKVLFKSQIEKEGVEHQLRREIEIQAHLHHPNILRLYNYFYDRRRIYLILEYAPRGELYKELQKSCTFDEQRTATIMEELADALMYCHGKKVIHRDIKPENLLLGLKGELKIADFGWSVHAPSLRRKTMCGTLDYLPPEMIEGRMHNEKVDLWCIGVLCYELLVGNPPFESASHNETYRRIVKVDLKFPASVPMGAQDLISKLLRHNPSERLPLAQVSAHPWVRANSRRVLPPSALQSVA
Sequence of N-terminally truncated (Δ 27) Abl kinase (P00519 28-1130 limits assumed, stated change not applied): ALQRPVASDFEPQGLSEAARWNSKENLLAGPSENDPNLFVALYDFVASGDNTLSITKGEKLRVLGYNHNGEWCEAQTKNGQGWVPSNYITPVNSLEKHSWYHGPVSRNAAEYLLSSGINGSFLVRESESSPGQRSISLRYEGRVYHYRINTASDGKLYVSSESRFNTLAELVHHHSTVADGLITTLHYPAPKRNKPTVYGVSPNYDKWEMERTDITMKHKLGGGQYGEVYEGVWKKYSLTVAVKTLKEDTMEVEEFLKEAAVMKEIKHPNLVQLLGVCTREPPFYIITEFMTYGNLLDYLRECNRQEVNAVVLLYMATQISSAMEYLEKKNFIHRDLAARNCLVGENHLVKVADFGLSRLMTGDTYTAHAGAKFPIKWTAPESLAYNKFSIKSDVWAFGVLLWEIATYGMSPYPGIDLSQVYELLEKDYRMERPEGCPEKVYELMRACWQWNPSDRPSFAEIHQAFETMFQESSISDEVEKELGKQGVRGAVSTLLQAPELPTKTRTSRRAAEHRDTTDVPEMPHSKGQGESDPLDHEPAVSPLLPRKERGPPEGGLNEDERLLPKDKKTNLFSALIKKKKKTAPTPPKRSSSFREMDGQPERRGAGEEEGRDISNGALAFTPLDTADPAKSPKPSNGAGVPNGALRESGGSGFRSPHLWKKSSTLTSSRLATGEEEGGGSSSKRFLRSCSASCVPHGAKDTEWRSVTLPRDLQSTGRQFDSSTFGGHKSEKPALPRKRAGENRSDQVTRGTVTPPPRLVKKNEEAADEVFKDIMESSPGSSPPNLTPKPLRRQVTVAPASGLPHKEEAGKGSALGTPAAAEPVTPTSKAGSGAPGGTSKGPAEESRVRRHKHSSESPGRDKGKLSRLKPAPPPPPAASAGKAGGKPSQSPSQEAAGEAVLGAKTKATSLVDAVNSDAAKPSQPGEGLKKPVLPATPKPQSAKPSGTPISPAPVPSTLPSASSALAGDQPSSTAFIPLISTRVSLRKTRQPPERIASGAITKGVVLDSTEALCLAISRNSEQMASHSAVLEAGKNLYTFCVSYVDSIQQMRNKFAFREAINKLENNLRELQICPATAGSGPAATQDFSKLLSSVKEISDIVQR
Sequence of FGFR1 (P11362 22-822, species assumed): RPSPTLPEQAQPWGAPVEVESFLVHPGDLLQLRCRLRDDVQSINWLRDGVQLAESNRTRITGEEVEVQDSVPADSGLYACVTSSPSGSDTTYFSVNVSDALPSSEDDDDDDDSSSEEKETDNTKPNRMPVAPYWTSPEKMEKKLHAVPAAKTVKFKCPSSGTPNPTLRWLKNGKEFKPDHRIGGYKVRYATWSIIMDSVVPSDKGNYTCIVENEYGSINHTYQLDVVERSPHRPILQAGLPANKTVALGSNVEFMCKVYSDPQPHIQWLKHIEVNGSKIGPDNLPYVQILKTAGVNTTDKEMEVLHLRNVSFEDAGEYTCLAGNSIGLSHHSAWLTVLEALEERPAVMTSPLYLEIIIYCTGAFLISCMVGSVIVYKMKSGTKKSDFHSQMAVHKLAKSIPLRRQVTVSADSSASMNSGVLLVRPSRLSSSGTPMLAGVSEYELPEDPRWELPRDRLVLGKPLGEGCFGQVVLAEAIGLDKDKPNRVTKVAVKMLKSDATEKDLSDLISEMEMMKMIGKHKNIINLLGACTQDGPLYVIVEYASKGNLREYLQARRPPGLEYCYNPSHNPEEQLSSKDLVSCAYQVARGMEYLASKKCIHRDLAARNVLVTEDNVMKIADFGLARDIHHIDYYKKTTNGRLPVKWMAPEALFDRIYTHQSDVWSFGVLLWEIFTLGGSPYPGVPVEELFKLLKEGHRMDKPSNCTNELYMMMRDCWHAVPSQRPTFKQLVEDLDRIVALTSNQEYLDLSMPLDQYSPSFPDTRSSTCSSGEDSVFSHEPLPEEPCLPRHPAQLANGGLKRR
Sequence of Arg (Abl-2) (P42684 whole entry, species assumed): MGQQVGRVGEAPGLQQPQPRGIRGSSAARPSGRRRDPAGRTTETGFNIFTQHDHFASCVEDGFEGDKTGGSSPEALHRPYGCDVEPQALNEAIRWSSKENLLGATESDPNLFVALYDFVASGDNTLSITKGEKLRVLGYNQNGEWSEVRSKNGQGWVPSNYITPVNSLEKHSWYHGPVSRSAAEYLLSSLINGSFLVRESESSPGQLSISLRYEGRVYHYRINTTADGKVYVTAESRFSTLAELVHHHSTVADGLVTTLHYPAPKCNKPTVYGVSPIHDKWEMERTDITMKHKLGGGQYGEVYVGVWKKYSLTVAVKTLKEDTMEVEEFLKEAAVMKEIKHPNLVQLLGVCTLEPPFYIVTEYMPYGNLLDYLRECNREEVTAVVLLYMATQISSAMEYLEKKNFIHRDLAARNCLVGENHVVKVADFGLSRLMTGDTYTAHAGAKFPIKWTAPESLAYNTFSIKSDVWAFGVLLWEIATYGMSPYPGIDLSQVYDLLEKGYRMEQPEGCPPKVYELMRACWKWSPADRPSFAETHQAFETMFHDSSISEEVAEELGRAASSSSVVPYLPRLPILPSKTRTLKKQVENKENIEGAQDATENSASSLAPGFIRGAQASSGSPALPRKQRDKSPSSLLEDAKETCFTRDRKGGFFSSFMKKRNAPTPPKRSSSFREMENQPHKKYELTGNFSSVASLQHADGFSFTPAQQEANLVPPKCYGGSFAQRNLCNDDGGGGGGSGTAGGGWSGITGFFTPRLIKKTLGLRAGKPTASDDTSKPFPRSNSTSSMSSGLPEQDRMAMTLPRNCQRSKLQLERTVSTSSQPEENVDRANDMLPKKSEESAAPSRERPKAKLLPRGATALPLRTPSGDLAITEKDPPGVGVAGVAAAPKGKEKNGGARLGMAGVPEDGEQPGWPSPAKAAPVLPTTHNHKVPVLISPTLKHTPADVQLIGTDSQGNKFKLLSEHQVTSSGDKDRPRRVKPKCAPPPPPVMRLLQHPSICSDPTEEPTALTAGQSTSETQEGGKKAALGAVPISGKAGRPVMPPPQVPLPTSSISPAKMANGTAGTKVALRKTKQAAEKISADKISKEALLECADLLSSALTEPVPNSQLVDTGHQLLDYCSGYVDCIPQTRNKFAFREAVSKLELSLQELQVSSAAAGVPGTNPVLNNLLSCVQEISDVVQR

IC50 ([2]; COLO 205, Colo205 cells, 96 hours, read-out: Colo205 inh 3H-Thy incorporation after 96 hours IC50)	SMILES	Ki [1]	IC50 [2, 7]	Ki [3]	Ki [4, 8]	IC50 [2, 9]	Ki [4]	IC50 [5]	IC50 [6]
	CCC(=O)Nc1ccc(Sc2nc(Nc3cc(C)[nH]n3)cc(N3CC(F)(C4CC4)C3)n2)cc1 [Compound I-16]	24 nM	0.051 µM	170 nM	1 nM				
	CCC(=O)Nc1ccc(Sc2nc(Nc3cc(C)n[nH]3)cc(N3CC(O)(CC(C)(C)C)C3)n2)cc1 [Compound I-1]	7 nM				0.047 µM	0.4 nM		
	Cc1cc(Nc2cc(N3CC(F)(C4CC4)C3)nc(Sc3ccc(NC(=O)C4(C(F)(F)F)CC4)cc3)n2)[nH]n1 [Compound I-15]	9.6 nM	0.026 µM	57 nM	0.4 nM				
0.092 µM	CCC(=O)Nc1ccc(Sc2nc(Nc3cc(C)n[nH]3)cc(N3CC(O)(CC)C3)n2)cc1 [Compound I-4]	15 nM			1.7 nM				
	Cc1cc(Nc2cc(N3CC(F)(C4CC4)C3)nc(Sc3ccc(NC(=O)CCC(F)(F)F)cc3)n2)[nH]n1 [Compound I-17]	12 nM	0.026 µM	22 nM	0.62 nM	0.019 µM		210 nM	88 nM
